Reference: patent US20110021619A1, “EXTERNAL PREPARATION FOR SKIN CONTAINING FLAVANONE DERIVATIVE” (priority 2006, published 2011)

What was measured:
[1] = system: epidermal keratinocytes and fibroblasts; test: Influence on fibroblasts through epidermal keratinocytes, amount of procollagen produced (PIP EIA); assay type: cell-based, human
Description: The method is based on one described in Eming SA et al., Hum. Gene. Ther., 9 (4), 529-39 (1998).
DAY 1: The cells are seeded on a 24-well plate at a cell density of 3×10^4 cells/well. […] DAY 7: The supernatant of the culture is collected.
DAY 3: The cells are seeded on a 24-well plate at a cell density of 2.5×10^4 cells/well. DAY 7: The plate is washed with PBS and the culture supernatant (900 μl) of the epidermal keratinocytes is then added, followed by culturing for 48 hours. DAY 9: The plate is washed with PBS and serum-free DMEM and the medium is then replaced with 500 μl of serum-free DMEM, followed by culturing for 2 hours. The supernatant of the culture is collected and the amount of procollagen in the centrifuged supernatant (15000 rpm, 5 sec.) was then measured depending on the method described below. […]
4) A standard curve was formed by plotting absorbance values at a wavelength of […] while the absorbance of the medium was set to zero as a reference. Then, the PIP concentration was read out from the corresponding absorbance of the test substance.

Normal human fibroblasts [2] = test: Wound-healing model (punched three-dimensional collagen gel), behavior of fibroblasts; assay type: cell-based; conditions: 10^−6 ml/ml-DMEM farrerol, after 24 hours, vs farrerol-free group
Text: 1) The culture of fibroblasts obtained by Protocol 4 of Example 1 and the collagen medium solution were mixed together at a ratio of 1:9 (volume) and then suspension-cultured in a 10%-FBS medium for 1 week.
2) When the size of a collagen gel was reduced from one at the time of being prepared by the addition of the collagen medium solution to a size of about ⅕ to 1/10, the center portion of the gel was punched out by a disposable biopsy punch with a diameter of 3 mm.
3) A 6-well plate was prepared and 15 μl of the collagen solution was then dropped on the center of the well. Subsequently, the punched three-dimensional collagen gel was mounted thereon and incubated for 10 minutes (37° C., 5% CO2).
4) When the dropped collagen was solidified and the three-dimensional collagen gel was attached to the bottom of the well, 10% FBS-DMEM, 0.1% heparin/10% FBS-DMEM, and 1.0% heparin/10% FBS-DMEM were added in a volume of 3 ml/well.

[3] = system: Normal human epidermal keratinocytes
Description: 1) Normal human epidermal keratinocytes grown to 80% confluency were dispersed with 0.05% Trypsin/EDTA. The dispersant was seeded on 96 wells/plate at a concentration of 3×10^3 cells/well and 6×10^3 cells/well.
4) Absorbance (OD value) was measured at a measurement wavelength of 450 nm and a reference wavelength of 650 nm.

NHDF = test: Building of collagen fiber bundle in collagen gel with heparin, SEM observation; assay type: cell-based, human; conditions: 1% heparin at final, 5 days incubation, FIG. 3
Description: A collagen solution was prepared by mixture of 0.5% type-I collagen: 5×DMEM: 200 mM HEPES: 2.2% NaHCO3: 0.1 N NaOH: FBS: water at a ratio of 4:4:2:2:1:2:3 (performed while cooling).
A lower-layer collagen solution was prepared by mixing collagen solution with water at a ratio of 9 to 1.
The lower-layer collagen solution was dispensed into the respective wells of a 48-well plate in a volume of 100 μl/well.
The collagen solution was mixed with the cell suspension at a ratio of 9 to 1 (volume) and then dispensed into the respective wells in a volume of 300 μl/well.
The addition of 1.8% Heparin/10% FBS-DMEM was performed in a volume of 500 μl/well (1% Heparin/well at final).
Incubation was carried out in the CO2 incubator (5 days).
A sample for SEM observation was obtained.

[4] = system: Normal human epidermal keratinocytes; test: Cell proliferation effect of farrerol on keratinocytes (direct evaluation, cell count); assay type: cell-based; conditions: FIG. 7
Description: 3) After 24 hours, 48 hours, and 72 hours from the sample addition, the cells were dispersed with 0.05% Trypsin/EDTA and the number thereof was then counted by a blood cell counter. By the way, in Experiment 1, the evaluation for WST-8 was used as an indicator of the number of cells. Since such a method is provided for indirect evaluation of the number of cells by acting on […] in mitochondria, the present study directly count the number of cells.

Normal human fibroblasts [5] = test: Toxicity of farrerol on fibroblasts, MTT assay (WST-8); assay type: cell-based; conditions: 24, 48 and 72 hours after addition, any of the concentrations considered
Description: 1. Fibroblasts grown to 80% confluency were dispersed with 0.05% Trypsin/EDTA. The dispersant was seeded on 96 wells/plate at a concentration of 3×10^3 cells/well. 2. […] 3. […] 4. Absorbance was measured at a measurement wavelength of 450 nm and a reference wavelength of 650 nm.

Normal human fibroblasts [6] = test: Screening with wound model (punched collagen gel), Example 11; assay type: cell-based
Description: The fractions containing the single ingredients obtained as described above are provided as test substances and the effect of each test substance to construct collagen is then evaluated to screen the substance with a wound-healing effect. The specific procedures will be described later.
Using a “wound model” provided with a defect area formed by punching a collagen gel containing animal fibroblasts, the degree of filling or reduction of the defect area in the presence of a test substance will be observed. The procedures are as follows.
1) Normal human fibroblasts grown to 80% confluency in preculture were dispersed with 0.05% Trypsin/EDTA. The fibroblasts were then seeded on a plate at a cell density of 3×10^5 cells/25 cm^2 (1×10^4 cells/cm^2).
3) A collagen gel was prepared by adding a collagen medium solution to the obtained culture in a manner similar to Example 3. The fibroblasts in the collagen gel were cultured using the medium used in (2). The concentration of the test substance in the medium corresponded to the concentration of the medium of (2).
4) After culturing for 1 week, the size of a collagen gel was reduced from one at the time of being prepared by the addition of the collagen medium solution to a size of about ⅕ to 1/10. Subsequently, the center portion of the collagen gel was punched out in a donut form by a disposable biopsy punch with a diameter of 3 mm. As a result, a “wound model” was prepared.
5) A 6-well plate was prepared and 5 μl of the collagen solution was then dropped on the center portion of the well. Subsequently, the collagen gel of the wound model was mounted thereon and incubated at 37° C. for 15 minutes, allowing the collagen gel to be attached on the bottom of the well.
6) Subsequently, 3 ml of the same medium as that of (2) was added to each of the wells and the fibroblasts in the above-mentioned collagen gel was then cultured for 7 days. During the culture, the process of closing up the wound area of the collagen gel was visually observed.

Normal human fibroblasts [7] = test: Model of defective dermal tissue with wound (punched collagen gel), Example 6; assay type: cell-based; conditions: FIG. 4
Description: The procedures will be described below. The results are represented in FIG. 4.
1) Normal human fibroblasts grown to 80% confluency were dispersed with 0.05% Trypsin/EDTA. The fibroblasts were seeded at a cell density of 3×10^5 cells/25 cm^2.
3) A collagen gel was prepared by adding a collagen medium solution to the culture obtained by culturing under each of the conditions in a manner similar to Example 2. The prepared collagen gel was then suspension-cultured for 1 week in the same medium as that of the culture condition of (2).
4) When the size of a collagen gel was reduced from one at the time of being prepared by the addition of the collagen medium solution to a size of about ⅕ to 1/10, the center portion of the gel was punched out in a donut form by a disposable biopsy punch with a diameter of 3 mm. As a result, a “wound model” was prepared.
5) A 6-well plate was prepared and 5 μl of collagen was then dropped on the center portion of the well. Subsequently, the collagen gel of the wound model was mounted thereon and incubated at 37° C. for 15 minutes.
6) When the dropped collagen was solidified and the gel was attached to the bottom of the well, 3 ml of the medium with the same condition as that of (3) was added, followed by culturing as a “model of defective dermal tissue with wound”. Subsequently, the process of closing up the wound area of the collagen gel was visually observed.

Cc1c(O)c(C)c2c(c1O)C(=O)CC(c1ccc(O)cc1)O2 (centres unmarked) [farrerol]
amount of procollagen produced ([1]; another system: farrerol added at the time of culturing fibroblasts, then keratinocyte culture supernatant added): did not show a large change in amount of procollagen produced | amount of procollagen produced ([1]; fibroblasts cultured 48 hours with supernatant of keratinocytes treated with farrerol 10^−6, 10^−7, 10^−8 M, FIG. 8): increased significantly depending on the concentration of farrerol | movement of fibroblasts from the wound area (Normal human fibroblasts [2]; 0.1% heparin/10% FBS-DMEM and 1.0% heparin/10% FBS-DMEM): no difference in cell movement | movement of fibroblasts from the wound area (Normal human fibroblasts [2]; unsupplemented 10% FBS-DMEM, FIG. 2): longer movement distance of fibroblasts and a more active cellular movement | OD value (450 nm) ([3]; dependence on concentration of farrerol, FIG. 5): increased depending on the concentration of farrerol | OD value, reproducibility ([3]; doubled number of seeded cells, 6×10^3 cells/well): almost the similar result could be obtained | building of a collagen fiber bundle (NHDF): prevents an inhibitory effect of heparin on the building of a collagen fiber bundle | cell shape [4]: no change in cell shape | cytotoxicity (Normal human fibroblasts [5]): Significant cytotoxicity could not be confirmed | degree of filling or reduction of the defect area (Normal human fibroblasts [6]; compared with the rest of the seven single-ingredient fractions of Hypericum erectum extract): highest degree of filling or reduction of the defect area | concentration exerting a wound-healing promoting effect (Normal human fibroblasts [6]; effective concentration read from defect area reduction): at least 10^−6 M | reduction of the punch hole (defect area) (Normal human fibroblasts [6]; final concentration of farrerol 10^−5 M, FIG. 9): distinctly promoted | reduction of the punch hole (defect area) (Normal human fibroblasts [6]; final concentration of farrerol 10^−6 M, FIG. 9): distinctly promoted | promotion of reduction of the punch hole (defect area) (Normal human fibroblasts [6]; final concentration of farrerol 10^−7 M, FIG. 9): obscure | reduction of punched hole size (Normal human fibroblasts [7]; final concentration of farrerol 10^−5 M): promoted clearly | reduction of punched hole size (Normal human fibroblasts [7]; final concentration of farrerol 10^−6 M): promoted clearly | promotion of reduction of punched hole size (Normal human fibroblasts [7]; final concentration of farrerol 10^−7 M): unclear
